Target: T1, bacteriophage T4 DNA polymerase (Enterobacteria phage T4, UniProt P04415)
T1 construct: made in house
T1 sequence (P04415 1-898): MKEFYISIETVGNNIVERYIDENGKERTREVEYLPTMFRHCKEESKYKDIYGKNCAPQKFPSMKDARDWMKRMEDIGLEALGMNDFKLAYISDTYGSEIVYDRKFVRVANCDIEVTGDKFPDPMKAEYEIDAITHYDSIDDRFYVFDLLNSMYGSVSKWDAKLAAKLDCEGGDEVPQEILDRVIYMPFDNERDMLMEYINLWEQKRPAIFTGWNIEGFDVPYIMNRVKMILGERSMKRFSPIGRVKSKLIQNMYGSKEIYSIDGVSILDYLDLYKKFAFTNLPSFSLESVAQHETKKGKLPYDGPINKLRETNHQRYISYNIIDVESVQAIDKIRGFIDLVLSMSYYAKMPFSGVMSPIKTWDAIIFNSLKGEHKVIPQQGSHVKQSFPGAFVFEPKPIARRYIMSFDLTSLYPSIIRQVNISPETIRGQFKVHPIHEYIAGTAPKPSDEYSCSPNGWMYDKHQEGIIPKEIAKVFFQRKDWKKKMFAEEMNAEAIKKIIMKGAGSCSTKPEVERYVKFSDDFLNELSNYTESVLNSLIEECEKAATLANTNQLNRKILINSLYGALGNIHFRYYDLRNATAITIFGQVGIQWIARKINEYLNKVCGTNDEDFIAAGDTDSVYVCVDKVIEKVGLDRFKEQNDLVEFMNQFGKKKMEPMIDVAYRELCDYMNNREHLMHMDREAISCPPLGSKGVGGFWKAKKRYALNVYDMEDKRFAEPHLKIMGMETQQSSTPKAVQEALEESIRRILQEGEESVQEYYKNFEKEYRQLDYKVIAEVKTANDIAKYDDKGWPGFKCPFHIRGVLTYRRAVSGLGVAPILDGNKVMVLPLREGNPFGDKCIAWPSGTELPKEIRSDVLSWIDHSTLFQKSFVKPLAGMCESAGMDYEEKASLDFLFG
Assay: Counter-screen against bacteriophage T4 DNA polymerase
Format: biochemical
Conditions: for % inhibition T4 10' 2.5 / % inhibition T4 10' 5 / % inhibition T4 10' 10 / % inhibition T4 10' 20 / % inhibition T4 10' 40 / % inhibition T4 10' 80: read at 10'; for % inhibition T4 10' 2.5 / % inhibition T4 70' 2.5 / % inhibition T4 130' 2.5 / % inhibition T4 40' 2.5 / % inhibition T4 90' 2.5 / % inhibition T4 180' 2.5: concentration 2.5; for % inhibition T4 10' 5 / % inhibition T4 70' 5 / % inhibition T4 130' 5 / % inhibition T4 40' 5 / % inhibition T4 90' 5 / % inhibition T4 180' 5: concentration 5; for % inhibition T4 10' 10 / % inhibition T4 70' 10 / % inhibition T4 130' 10 / % inhibition T4 40' 10 / % inhibition T4 90' 10 / % inhibition T4 180' 10: concentration 10; for % inhibition T4 10' 20 / % inhibition T4 70' 20 / % inhibition T4 130' 20 / % inhibition T4 40' 20 / % inhibition T4 90' 20 / % inhibition T4 180' 20: concentration 20; for % inhibition T4 10' 40 / % inhibition T4 70' 40 / % inhibition T4 130' 40 / % inhibition T4 40' 40 / % inhibition T4 90' 40 / % inhibition T4 180' 40: concentration 40; for % inhibition T4 10' 80 / % inhibition T4 70' 80 / % inhibition T4 130' 80 / % inhibition T4 40' 80 / % inhibition T4 90' 80 / % inhibition T4 180' 80: concentration 80; for % inhibition T4 70' 2.5 / % inhibition T4 70' 5 / % inhibition T4 70' 10 / % inhibition T4 70' 20 / % inhibition T4 70' 40 / % inhibition T4 70' 80: read at 70'; for % inhibition T4 130' 2.5 / % inhibition T4 130' 5 / % inhibition T4 130' 10 / % inhibition T4 130' 20 / % inhibition T4 130' 40 / % inhibition T4 130' 80: read at 130'; for % inhibition T4 40' 2.5 / % inhibition T4 40' 5 / % inhibition T4 40' 10 / % inhibition T4 40' 20 / % inhibition T4 40' 40 / % inhibition T4 40' 80: read at 40'; for % inhibition T4 90' 2.5 / % inhibition T4 90' 5 / % inhibition T4 90' 10 / % inhibition T4 90' 20 / % inhibition T4 90' 40 / % inhibition T4 90' 80: read at 90'; for % inhibition T4 180' 2.5 / % inhibition T4 180' 5 / % inhibition T4 180' 10 / % inhibition T4 180' 20 / % inhibition T4 180' 40 / % inhibition T4 180' 80: read at 180'
Method: Codon-optimized, exonuclease-deficient Pf-apPOL was overexpressed in E. coli BL21 (DE3) and purified as described. The protein was dialysed against two, 1-liter changes of 20 mM Tris-HCl (pH 8.0), 400 mM NaCl, and 20% glycerol. Plasmodium bergei and Babesia bovis apPOLs (Pb-apPOL and Bb-apPOL, respectively) were codon-optimized, expressed, and purified as for Pf-apPOL[15]. Bacteriophage T4 DNA polymerase was purified as described. The DNA oligonucleotides used to make the high-throughput substrate were obtained from Integrated DNA Technologies. Deoxynucleotides were purchased from Strategene. All other materials came from Fisher Scientific.
Each compound was tested in a dose-response format to determine IC50 values. […] T4 DNA polymerase can be produced in large quantities, and is in the same family (B-family) as the replicative human DNA polymerases (α, δ, and ε)[20].

With Cc1ccc(N2CCC(NC(=O)Cc3cccs3)C2=O)cc1C (stereo not drawn) [Molecule 57, O=C(NC1CCN(C1=O)c1ccc(c(c1)C)C)Cc1cccs1] the “% inhibition T4 10' 2.5” value (DRC-1) was -2.9635%, the “% inhibition T4 10' 5” value (DRC-1) was 6.066% and the “% inhibition T4 10' 10” value (DRC-1) was 19.8361%. For the same compound, the “% inhibition T4 10' 20” value (DRC-1) was 23.1597%, the “% inhibition T4 10' 40” value (DRC-1) was 29.7521% and the “% inhibition T4 10' 80” value (DRC-1) was 29.7097%. For the same compound, the “% inhibition T4 70' 2.5” value (DRC-1) was -3.783%, the “% inhibition T4 70' 5” value (DRC-1) was 0.9049% and the “% inhibition T4 70' 10” value (DRC-1) was 15.0423%. The “% inhibition T4 70' 20” value (DRC-1) was 17.1422%, the “% inhibition T4 70' 40” value (DRC-1) was 24.1448% and the “% inhibition T4 70' 80” value (DRC-1) was 21.6253%. The “% inhibition T4 130' 2.5” value (DRC-1) was -5.326%, the “% inhibition T4 130' 5” value (DRC-1) was -0.359% and the “% inhibition T4 130' 10” value (DRC-1) was 12.5508%. For the same compound, the “% inhibition T4 130' 20” value (DRC-1) was 13.7416%, the “% inhibition T4 130' 40” value (DRC-1) was 21.2189% and the “% inhibition T4 130' 80” value (DRC-1) was 19.4508%. The “% inhibition T4 10' 2.5” value (DRC-2) was 14%, the “% inhibition T4 10' 5” value (DRC-2) was 12% and the “% inhibition T4 10' 10” value (DRC-2) was 20%. The “% inhibition T4 10' 20” value (DRC-2) was 23%, the “% inhibition T4 10' 40” value (DRC-2) was 25% and the “% inhibition T4 10' 80” value (DRC-2) was 26%. The “% inhibition T4 40' 2.5” value (DRC-2) was 13%, the “% inhibition T4 40' 5” value (DRC-2) was 12% and the “% inhibition T4 40' 10” value (DRC-2) was 20%. The “% inhibition T4 40' 20” value (DRC-2) was 27%, the “% inhibition T4 40' 40” value (DRC-2) was 30% and the “% inhibition T4 40' 80” value (DRC-2) was 35%. The “% inhibition T4 90' 2.5” value (DRC-2) was 13%, the “% inhibition T4 90' 5” value (DRC-2) was 11% and the “% inhibition T4 90' 10” value (DRC-2) was 20%. For the same compound, the “% inhibition T4 90' 20” value (DRC-2) was 26%, the “% inhibition T4 90' 40” value (DRC-2) was 29% and the “% inhibition T4 90' 80” value (DRC-2) was 37%. The “% inhibition T4 180' 2.5” value (DRC-2) was 11%, the “% inhibition T4 180' 5” value (DRC-2) was 10% and the “% inhibition T4 180' 10” value (DRC-2) was 18%. For the same compound, the “% inhibition T4 180' 20” value (DRC-2) was 25%, the “% inhibition T4 180' 40” value (DRC-2) was 28% and the “% inhibition T4 180' 80” value (DRC-2) was 37%.
For COc1ccc(C2CC(c3ccc(Cl)cc3Cl)Nc3nc(N)nn32)cc1OC (stereo not drawn) [Molecule 43, COc1cc(ccc1OC)C1CC(Nc2n1nc(n2)N)c1ccc(cc1Cl)Cl], the “% inhibition T4 10' 2.5” value (DRC-1) was 8.55%, the “% inhibition T4 10' 5” value (DRC-1) was 0.398% and the “% inhibition T4 10' 10” value (DRC-1) was 3.64%. The “% inhibition T4 10' 20” value (DRC-1) was 1.67%, the “% inhibition T4 10' 40” value (DRC-1) was 9% and the “% inhibition T4 10' 80” value (DRC-1) was 12%. For the same compound, the “% inhibition T4 70' 2.5” value (DRC-1) was 8%, the “% inhibition T4 70' 5” value (DRC-1) was 0.633% and the “% inhibition T4 70' 10” value (DRC-1) was 1.77%. The “% inhibition T4 70' 20” value (DRC-1) was 0.0404%, the “% inhibition T4 70' 40” value (DRC-1) was 8% and the “% inhibition T4 70' 80” value (DRC-1) was 9%. The “% inhibition T4 130' 2.5” value (DRC-1) was 7%, the “% inhibition T4 130' 5” value (DRC-1) was -0.436% and the “% inhibition T4 130' 10” value (DRC-1) was 0.362%. For the same compound, the “% inhibition T4 130' 20” value (DRC-1) was -1.3%, the “% inhibition T4 130' 40” value (DRC-1) was 6% and the “% inhibition T4 130' 80” value (DRC-1) was 8.47%. For the same compound, the “% inhibition T4 10' 2.5” value (DRC-2) was 3.49%, the “% inhibition T4 10' 5” value (DRC-2) was -2.24% and the “% inhibition T4 10' 10” value (DRC-2) was -1.16%. The “% inhibition T4 10' 20” value (DRC-2) was -2.26%, the “% inhibition T4 10' 40” value (DRC-2) was 0.721% and the “% inhibition T4 10' 80” value (DRC-2) was 0.788%. For the same compound, the “% inhibition T4 40' 2.5” value (DRC-2) was 2.64%, the “% inhibition T4 40' 5” value (DRC-2) was -2.79% and the “% inhibition T4 40' 10” value (DRC-2) was -1.88%. The “% inhibition T4 40' 20” value (DRC-2) was -2.36%, the “% inhibition T4 40' 40” value (DRC-2) was 1% and the “% inhibition T4 40' 80” value (DRC-2) was 0.512%. For the same compound, the “% inhibition T4 90' 2.5” value (DRC-2) was 2%, the “% inhibition T4 90' 5” value (DRC-2) was -3% and the “% inhibition T4 90' 10” value (DRC-2) was -0.792%. The “% inhibition T4 90' 20” value (DRC-2) was -3%, the “% inhibition T4 90' 40” value (DRC-2) was -0.348% and the “% inhibition T4 90' 80” value (DRC-2) was -1%. The “% inhibition T4 180' 2.5” value (DRC-2) was -2.47%, the “% inhibition T4 180' 5” value (DRC-2) was -8% and the “% inhibition T4 180' 10” value (DRC-2) was -5%. The “% inhibition T4 180' 20” value (DRC-2) was -7%, the “% inhibition T4 180' 40” value (DRC-2) was -4% and the “% inhibition T4 180' 80” value (DRC-2) was -2.58%.
